The source made the active and inactive calls. The calls are words filed in the database; no cut-off is given here.

One experiment deals with KB. The experiment is described as follows: Inhibitory activity against human KB cell line. The note with it: read-out: ID50 (the source's name). The class given is functional.
Take `CCOP(=O)(OCC)C(N)C(C)(C)C.O=C(O)C(=O)O` (stereo unspecified): the IC50 came out at 240 µg/mL.

For another experiment, the system named is KB. The experiment in a line: Inhibitory activity against human KB cell line at the dose range of 1-400 (ug/mL); NA=Not active. The class given is functional, cell-based.
Settings: not given
Take `O=C(CP(=O)(O)O)NC(C1CCCCC1)P(=O)(O)O` (stereo unspecified): the ID50 entry was “inactive”.
Still for that read-out and setting: the value for `CCOP(=O)(OCC)C(N)CCC(=O)OC` (stereo unspecified) was “inactive”; that for `O=C(CP(=O)(O)O)NC(c1ccccc1)P(=O)(O)O` (stereo unspecified) was “inactive”.
On the same count and under the same terms, the result for `CCOC(=O)CCCC(N)P(=O)(OCC)OCC` (stereo unspecified) reads “inactive”; that for `CCCC(NC(=O)CP(=O)(O)O)P(=O)(O)O` (stereo in doubt; form 1), “inactive”.
With `CCOP(=O)(OCC)C(N)C1CC1` (stereo unspecified), the ID50 entry is “inactive”.
On the same count and under the same terms, the value for `O=C(O)CC(NC(=O)CP(=O)(O)O)C(=O)O` (stereo unspecified) was “inactive”.
Still for that read-out and setting: the result for `CCOP(=O)(OCC)C(N)C1CCCC1` (stereo unspecified) reads “inactive”; that for `O=C(O)CCC(NC(=O)CP(=O)(O)O)P(=O)(O)O` (stereo unspecified), “inactive”; that for `CCOP(=O)(OCC)C(N)C1CCCCC1` (stereo unspecified), “inactive”.
As for `O=C(CP(=O)(O)O)NCCCP(=O)(O)O`, the ID50 result was “inactive”.
On the same count and under the same terms, the result for `O=C(CP(=O)(O)O)NC(CP(=O)(O)O)C(=O)O` (stereo unspecified) reads “inactive”; that for `CC(C)(NC(=O)CP(=O)(O)O)P(=O)(O)O`, “inactive”.
Still for that read-out and setting: the result for `CCP(=O)(O)CNC(=O)CP(=O)(O)O` reads “inactive”; that for `CC(C)C(NC(=O)CP(=O)(O)O)P(=O)(O)O` (stereo unspecified), “inactive”; that for `O=C(O)CC(NC(=O)CP(=O)(O)O)P(=O)(O)O` (stereo unspecified), “inactive”.
On the same count and under the same terms, the value for `CCOP(=O)(OCC)C(N)C1CCC1` (stereo unspecified) was “inactive”; that for `O=C(CP(=O)(O)O)NC(C1CCC1)P(=O)(O)O` (stereo unspecified) was “inactive”.
As for `O=C(CP(=O)(O)O)NC1(P(=O)(O)O)CCCC1`, the ID50 result was “inactive”.
Same read-out and setting: the result for `CC(C)(C)C(NC(=O)CP(=O)(O)O)P(=O)(O)O` (stereo unspecified) reads “inactive”; that for `CCCC(NC(=O)CP(=O)(O)O)P(=O)(O)O` (stereo in doubt; form 2), “inactive”.
Same read-out and setting: the value for `O=C(CP(=O)(O)O)NC(C1CC1)P(=O)(O)O` (stereo unspecified) was “inactive”; that for `O=C(CP(=O)(O)O)NC(C1CCCC1)P(=O)(O)O` (stereo unspecified) was “inactive”; that for `O=C(O)CCCC(NC(=O)CP(=O)(O)O)P(=O)(O)O` (stereo unspecified) was “inactive”.
Still for that read-out and setting: the result for `CC(NC(=O)CP(=O)(O)O)P(=O)(O)O` (stereo unspecified) reads “inactive”.

Values taken from ChEMBL document CHEMBL1122830, “N-(Phosphonoacetyl)amino phosphonates. Phosphonate analogues of N-(phosphonoacetyl)-L-aspartic acid (PALA)” (1985).
